# Reference: patent publication US20100173935A1, “Muscarinic Receptor Agonists that are Effective in the Treatment of Pain, Alzheimer's Disease and Schizophrenia” (AstraZeneca AB, priority 2006, published 2010)
# Molecular target: T1, human M4 receptor (Homo sapiens, UniProt P08173)
# T1 construct: purchased Perkin-Elmer RBHM4M; host or cells: CHO cell membranes
# T1 sequence (P08173 1-479): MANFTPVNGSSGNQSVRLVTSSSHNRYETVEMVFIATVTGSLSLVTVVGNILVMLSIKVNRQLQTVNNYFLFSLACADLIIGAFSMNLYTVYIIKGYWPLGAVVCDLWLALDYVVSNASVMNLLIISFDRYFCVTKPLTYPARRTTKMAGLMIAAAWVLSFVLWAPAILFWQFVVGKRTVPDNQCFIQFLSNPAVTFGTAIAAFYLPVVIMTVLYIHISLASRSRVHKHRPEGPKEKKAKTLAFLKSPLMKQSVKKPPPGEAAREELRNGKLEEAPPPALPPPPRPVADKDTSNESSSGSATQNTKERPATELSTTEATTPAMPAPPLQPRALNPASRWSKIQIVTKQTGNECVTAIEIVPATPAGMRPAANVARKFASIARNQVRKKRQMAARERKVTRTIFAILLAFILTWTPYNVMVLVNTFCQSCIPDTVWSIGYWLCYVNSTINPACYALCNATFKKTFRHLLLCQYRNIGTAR
# Test: hM4 receptor GTPγS binding
# Assay type: biochemical
# Conditions: not given
# Procedure: Membranes produced from Chinese hamster ovary cells (CHO) expressing the cloned human M4 receptor (human Muscarinic receptor subtype 4, gene bank access NM_000741), were obtained from Perkin-Elmer (RBHM4M). The membranes were thawed at 37° C., passed 3 times through a 23-gauge blunt-end needle, diluted in the GTPγS binding buffer (50 mM Hepes, 20 mM NaOH, 100 mM NaCl, 1 mM EDTA, 5 mM MgCl2, pH 7.4, 100 μM DTT). The EC50, IC50 and Emax of the compounds of the invention were evaluated from 10-point dose-response curves (three fold concentration range) done in 60 μl in 384-well non-specific binding surface plate (Corning). Ten microliters from the dose-response curves plate (5× concentration) were transferred to another 384 well plate containing the following: 10 μg of hM4 membranes, 500 μg of Flashblue beads (Perkin-Elmer) and GDP in a 25 μl volume. An additional 15 μl containing 3.3× (55000 dpm) of GTPγS (0.4 nM final) were added to the wells resulting in a total well volume of […]. Basal and maximal stimulated [^35S]GTPγS binding were determined in absence and presence of 30 μM of acetylcholine agonist. The membranes/beads mix were pre-incubated for 15 minutes at room temperature with 40 μM GDP prior to distribution In plates (20 μM final). The reversal of acetylcholine-induced stimulation (10 μM final) of [^35S]GTPγS binding was used to assay the antagonist properties (IC50) of the compounds. The plates were incubated for 60 minutes at room temperature with shaking, then centrifuged at 2000 rpm for 5 minutes. The radioactivity (cpm) were counted in a Trilux (Perkin-Elmer).
# Values of EC50, IC50 and Emax were obtained using sigmoidal fits of a non-linear curve-fitting program (XLfit version 5.0.6 from ID Business Solutions Limited, Guildford, UK) of percent stimulated [^35S]GTRγS binding vs. log(molar ligand).
# All EC50 and IC50 values are reported as arithmetic means±standard error of mean of ‘n’ independent experiments. […] The IC50 was the concentration of the compound of the invention at which 50% inhibition of acetylcholine [^35S]GTRγS binding stimulation has been observed.
row,Compound,EC50 [µM]
1,"CCOC(=O)N1CC[C@H](N2CCC(n3c(=O)[nH]c4ccc(F)cc43)CC2)C1 (single isomer, unassigned) [Example 35]",> 30
2,"CCOC(=O)N1CC[C@H](N2CCC(n3c(=O)[nH]c4ccc(Cl)cc43)CC2)C1 [Example 42, Ethyl (3S)-3-[4-(6-chloro-2-oxo-2,3-dihydro-1H-benzimidazol-1-yl)piperidin-1-yl]pyrrolidine-1-carboxylate]",≥ 10
3,"CCOC(=O)N1CC[C@H](N2CCC(N3C(=O)Cc4ccccc43)CC2)C1 [Example 26, Ethyl (3S)-3-[4-(2-oxo-2,3-dihydro-1H-indol-1-yl)piperidin-1-yl]pyrrolidine-1-carboxylate]",> 30
4,"CCOC(=O)N1CC[C@@H](N2CCC(n3c(=O)[nH]c4ccc(F)cc43)CC2)C1 (single isomer, unassigned) [Example 36]",> 30
5,"O=C1CCCN1CCCC(=O)N1CC[C@H](N2CCC(n3c(=O)[nH]c4ccccc43)CC2)C1 [Example 22, 1-(1-{(3S)-1-[4-(2-oxopyrrolidin-1-yl)butanoyl]pyrrolidin-3-yl}piperidin-4-yl)-1,3-dihydro-2H-benzimidazol-2-one]",> 30
6,"O=C1CCCN1CCC(=O)N1CC[C@H](N2CCC(N3C(=O)Cc4ccccc43)CC2)C1 [Example 29, 1-(1-{(3S)-1-[3-(2-oxopyrrolidin-1-yl)propanoyl]pyrrolidin-3-yl}piperidin-4-yl)-1,3-dihydro-2H-indol-2-one]",> 30
7,"O=C(C1CCCC1)N1CC[C@H](N2CCC(n3c(=O)[nH]c4ccccc43)CC2)C1 [Example 19, 1-{1-[(3S)-1-(cyclopentylcarbonyl)pyrrolidin-3-yl]piperidin-4-yl}-1,3-dihydro-2H-benzimidazol-2-one]",0.577
8,"CCOC(=O)N1CC[C@H](N2CCC(n3c(=O)[nH]c4ccc(C#N)cc43)CC2)C1 [Example 41, Ethyl (3S)-3-[4-(6-cyano-2-oxo-2,3-dihydro-1H-benzimidazol-1-yl)piperidin-1-yl]pyrrolidine-1-carboxylate]",> 30

# Same assay, conditions: CHO membranes expressing cloned human M4, [35S]GTPγS binding; read-out: hM4 EC50
row,Compound,EC50 [µM]
1,"Cn1c(=O)n(C2CCN([C@H]3CCN(C(=O)CCN4CCCC4=O)C3)CC2)c2ccccc21 [Example 24, 1-methyl-3-(1-{(3S)-1-[3-(2-oxopyrrolidin-1-yl)propanoyl]pyrrolidin-3-yl}piperidin-4-yl)-1,3-dihydro-2H-benzimidazol-2-one]",> 30
2,"CCOC(=O)N1CCC(N2CCC(C3C(=O)Nc4ccccc43)CC2)C1 (centres unmarked) [Example 13, Ethyl 3-[4-(2-oxo-2,3-dihydro-1H-indol-3-yl)piperidin-1-yl]pyrrolidine-1-carboxylate]",> 30
3,"CCOC(=O)N1CC[C@@H](N2CCC(n3c(=O)[nH]c4ccccc43)CC2)C1 [Example 16, Ethyl (3R)-3-[4-(2-oxo-2,3-dihydro-1H-benzimidazol-1-yl)piperidin-1-yl]pyrrolidine-1-carboxylate]",> 30
